From patent US20250296959A1, “B7-H3 TARGETING PEPTIDES AND CONSTRUCTS THEREOF” (Mariana Oncology Inc., priority 2024, published 2025) come the findings set out here.

The target of the assay is T1, human 4lg B7-H3 (Homo sapiens, UniProt Q5ZPR3).
T1 sequence (Q5ZPR3 29-534): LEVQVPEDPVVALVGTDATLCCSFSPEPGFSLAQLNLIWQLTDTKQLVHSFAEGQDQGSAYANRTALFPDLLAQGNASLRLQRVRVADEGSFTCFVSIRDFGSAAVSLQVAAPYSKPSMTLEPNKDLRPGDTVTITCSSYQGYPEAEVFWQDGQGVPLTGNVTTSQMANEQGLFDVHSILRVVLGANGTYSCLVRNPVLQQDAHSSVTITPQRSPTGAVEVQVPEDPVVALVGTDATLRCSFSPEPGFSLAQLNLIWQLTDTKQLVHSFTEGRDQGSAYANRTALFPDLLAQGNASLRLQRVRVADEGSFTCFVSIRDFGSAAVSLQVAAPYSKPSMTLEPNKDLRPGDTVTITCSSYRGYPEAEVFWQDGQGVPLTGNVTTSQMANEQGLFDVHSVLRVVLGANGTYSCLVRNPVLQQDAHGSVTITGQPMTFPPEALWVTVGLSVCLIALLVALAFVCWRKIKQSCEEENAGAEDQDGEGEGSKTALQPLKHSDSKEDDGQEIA
Description: Affinity determination by surface plasmon resonance (SPR) to 4Ig B7-H3. The note with it: 4Ig B7-H3.

The mark [1] stands for this setting: SPR KD—25° C., 25° C. flow cell temperature.
[2] abbreviates: SPR KD—37° C., 37° C. flow cell temperature.

Molecules are shown by their SMILES. Read-outs that look alike come from different tables or passages of the source. Starred links: 1 amine or outer side, 2 acyl side, 3 side chain; linkers in the order of their positions; H or OH if unused. Positions of bridges follow the written chain, without caps; N, C: chain ends. Non-standard residues stand in square brackets, D forms with d. Residues, ends and D or L forms follow the SMILES beside them. Groups on a side chain read outwards from the residue. *: point of attachment. Ala(piperidin-4-yl) = O=C([C@H](CC1CCN([*:3])CC1)N[*:1])[*:2]; DOTA = O=C(O)CN1CCN(CC(=O)O)CCN(CC(=O)*)CCN(CC(=O)O)CC1; Phe(4-COOH) = N[C@@H](Cc1ccc(C(=O)O)cc1)C(=O)O; Trp(5-F) = N[C@@H](Cc1c[nH]c2ccc(F)cc12)C(=O)O; X1 = C[C@@H](c1ccccc1)[C@H](N[*:1])C(=O)[*:2]; Ala(4-THP) = N[C@@H](CC1CCOCC1)C(=O)O; Val(3-OH) = CC(C)(O)[C@H](N)C(=O)O; hCha = N[C@@H](CCC1CCCCC1)C(=O)O; Cit = NC(=O)NCCC[C@H](N)C(=O)O; Chg = N[C@H](C(=O)O)C1CCCCC1; PEG4 = NCCOCCOCCOCCOCCC(=O)O; Tle = CC(C)(C)[C@H](N)C(=O)O; hLeu = CC(C)CC[C@H](N)C(=O)O; hSer = N[C@@H](CCO)C(=O)O; Nle = CCCC[C@H](N)C(=O)O; Orn = NCCC[C@H](N)C(=O)O; Sar = CNCC(=O)O

Regarding `CC(=O)N[C@@H](CCC(C)C)C(=O)N[C@@H](Cc1ccc(O)cc1)C(=O)N[C@H]1CSSC[C@@H](C(=O)N[C@@H](Cc2c[nH]c3ccc(F)cc23)C(=O)N[C@H](C(=O)N[C@H](C(=O)N[C@H](CCCCNC(=O)CN2CCN(CC(=O)O)CCN(CC(=O)O)CCN(CC(=O)O)CC2)C(=O)O)[C@@H](C)O)C(C)(C)C)NC(=O)[C@H](Cc2ccc(O)cc2)NC(=O)[C@H](C(C)C)NC(=O)[C@H](CC(=O)O)NC(=O)[C@H](CC2CCOCC2)NC(=O)[C@H](CCCCN)NC(=O)CNC(=O)[C@H](C(C)(C)C)NC1=O` [compound 335, Ac-hLeu-Y-C-Tbg-G-K-ThpA-D-V-Y-C-5FW-Tbg-Thr-dLys(DOTA)-COOH] (Ac-[hLeu]YC[Tle]GK[Ala(4-THP)]DVYC[Trp(5-F)][Tle]T[dK](DOTA)-OH; disulfide 3-11), the dissociation constant (Kd) under setting [1] lay within 1 to 10 nM.
Consider `CC(=O)N[C@@H](CC(C)C)C(=O)N[C@@H](Cc1ccc(O)cc1)C(=O)N[C@H]1CSSC[C@@H](C(=O)N[C@@H](Cc2c[nH]c3ccccc23)C(=O)N[C@@H](Cc2ccccc2)C(=O)N[C@H](C(=O)N[C@H](CCCCNC(=O)CN2CCN(CC(=O)O)CCN(CC(=O)O)CCN(CC(=O)O)CC2)C(N)=O)[C@@H](C)O)NC(=O)[C@H](Cc2ccc(O)cc2)NC(=O)[C@H](C(C)C)NC(=O)[C@H](CC(=O)O)NC(=O)[C@H](Cc2ccc(O)cc2)NC(=O)[C@H](CCCCN)NC(=O)CNC(=O)[C@H](C(C)C)NC1=O` [compound 56, Ac-Leu-Y-C-V-G-K-Y-D-V-Y-C-W-F-Thr-dLys(DOTA)-CONH2] (Ac-LYCVGKYDVYCWFT[dK](DOTA)-NH2; disulfide 3-11), for which the equilibrium dissociation constant (Kd) under setting [1] was in the range of 10 to 100 nM.
`CC(=O)N[C@@H](CCC(C)C)C(=O)N[C@@H](Cc1ccc(O)cc1)C(=O)N[C@H]1CSSC[C@@H](C(=O)N[C@@H](Cc2c[nH]c3ccccc23)C(=O)N[C@@H](Cc2ccccc2)C(=O)N[C@H](C(=O)N[C@H](CCCCNC(=O)CN2CCN(CC(=O)O)CCN(CC(=O)O)CCN(CC(=O)O)CC2)C(N)=O)[C@@H](C)O)NC(=O)[C@H](Cc2ccc(O)cc2)NC(=O)[C@H](C2CCCCC2)NC(=O)[C@H](CC(=O)O)NC(=O)[C@H](Cc2ccc(O)cc2)NC(=O)[C@H](CCCN)NC(=O)CNC(=O)[C@H](C(C)(C)C)NC1=O` [compound 138, Ac-hLeu-Y-C-Tbg-G-Orn-Y-D-Chg-Y-C-W-F-Thr-dLys(DOTA)-CONH2] (Ac-[hLeu]YC[Tle]G[Orn]YD[Chg]YCWFT[dK](DOTA)-NH2; disulfide 3-11): under setting [1], the dissociation constant (Kd) lay within 1 to 10 nM.
Same read-out and setting: in the case of `CCCC[C@@H]1NC(=O)[C@H](CC(=O)O)NC(=O)[C@H](Cc2ccc(O)cc2)NC(=O)[C@H](CCCCN)NC(=O)CNC(=O)[C@H](C(C)C)NC(=O)[C@@H](NC(=O)[C@H](Cc2ccc(O)cc2)NC(=O)[C@H](CCC(C)C)NC(C)=O)CSSC[C@@H](C(=O)N[C@@H](Cc2c[nH]c3ccc(F)cc23)C(=O)N[C@@H](Cc2ccccc2)C(=O)N[C@H](C(=O)N[C@H](CCCCNC(=O)CN2CCN(CC(=O)O)CCN(CC(=O)O)CCN(CC(=O)O)CC2)C(N)=O)[C@@H](C)O)NC(=O)[C@H](Cc2ccc(O)cc2)NC1=O` [compound 186, Ac-hLeu-Y-C-V-G-K-Y-D-Nle-Y-C-5FW-F-Thr-dLys(DOTA)-CONH2] (Ac-[hLeu]YCVGKYD[Nle]YC[Trp(5-F)]FT[dK](DOTA)-NH2; disulfide 3-11) it was 1 to 10 nM; in that of `CC(=O)N[C@@H](CCC(C)C)C(=O)N[C@@H](Cc1ccc(O)cc1)C(=O)N[C@H]1CSSC[C@@H](C(=O)N[C@@H](Cc2c[nH]c3ccc(F)cc23)C(=O)N[C@@H](Cc2ccccc2)C(=O)N2CCC[C@H]2C(=O)O)NC(=O)[C@H](Cc2ccc(O)cc2)NC(=O)[C@H](C(C)C)NC(=O)[C@H](CC(=O)O)NC(=O)[C@H](CC2CCOCC2)NC(=O)[C@H](CCCCNC(=O)CN2CCN(CC(=O)O)CCN(CC(=O)O)CCN(CC(=O)O)CC2)NC(=O)CNC(=O)[C@H](C(C)(C)C)NC1=O` [compound 305, Ac-hLeu-Y-C-Tbg-G-Lys(DOTA)-ThpA-D-V-Y-C-5FW-F-Pro-COOH] (Ac-[hLeu]YC[Tle]GK(DOTA)[Ala(4-THP)]DVYC[Trp(5-F)]FP-OH; disulfide 3-11), 100 to 300 nM; in that of `CC(=O)N[C@@H](CCC(C)C)C(=O)N[C@@H](Cc1ccc(O)cc1)C(=O)N[C@H]1CSSC[C@@H](C(=O)N[C@@H](Cc2c[nH]c3ccc(F)cc23)C(=O)N[C@@H](Cc2ccccc2)C(=O)N[C@H](C(=O)N[C@H](CCCCNC(=O)CN2CCN(CC(=O)O)CCN(CC(=O)O)CCN(CC(=O)O)CC2)C(N)=O)[C@@H](C)O)NC(=O)[C@H](Cc2ccc(O)cc2)NC(=O)[C@H](C(C)C)NC(=O)[C@H](CC(=O)O)NC(=O)[C@H](CCO)NC(=O)[C@H](CCCCN)NC(=O)CNC(=O)[C@H](C(C)C)NC1=O` [compound 199, Ac-hLeu-Y-C-V-G-K-hSer-D-V-Y-C-5FW-F-Thr-dLys(DOTA)-CONH2] (Ac-[hLeu]YCVGK[hSer]DVYC[Trp(5-F)]FT[dK](DOTA)-NH2; disulfide 3-11), 1 to 10 nM.
Consider `CC(=O)N[C@@H](CCC(C)C)C(=O)N[C@@H](Cc1ccc(O)cc1)C(=O)N[C@H]1CSSC[C@@H](C(=O)N[C@@H](Cc2c[nH]c3ccc(F)cc23)C(=O)N[C@@H](Cc2ccccc2)C(=O)N[C@H](C(=O)N[C@H](CCC(=O)O)C(N)=O)C(C)(C)O)CC(=O)[C@H](Cc2ccc(O)cc2)NC(=O)[C@H](C(C)C)NC(=O)[C@H](CC(=O)O)NC(=O)[C@H](C[C@H]2CC[C@H](O)CC2)NC(=O)[C@H](CCCCNC(=O)CN2CCN(CC(=O)O)CCN(CC(=O)O)CCN(CC(=O)O)CC2)NC(=O)CNC(=O)[C@H](C(C)(C)C)NC1=O` [compound 425, Ac-hLeu-Y-C-Tbg-G-Lys(DOTA)-4OHCha(pk2)-D-V-Y-C-5FW-F-hydroxyVal-dGlu-CONH2], for which, under setting [2], the dissociation constant Kd lay in the range of 1 to 10 nM.
`CC(=O)N[C@@H](CCC(C)C)C(=O)N[C@@H](Cc1ccc(O)cc1)C(=O)N[C@H]1CSSC[C@@H](C(=O)N[C@@H](Cc2c[nH]c3ccc(F)cc23)C(=O)N[C@H](C(=O)N[C@H](C(=O)N[C@H](CCCCNC(=O)[C@H](CCC(=O)O)NC(=O)CN2CCN(CC(=O)O)CCN(CC(=O)O)CCN(CC(=O)O)CC2)C(=O)O)C(C)(C)O)[C@@H](C)c2ccccc2)NC(=O)[C@H](Cc2ccc(O)cc2)NC(=O)[C@H](C(C)C)NC(=O)[C@H](CC(=O)O)NC(=O)[C@H](CC2CCOCC2)NC(=O)[C@H](CC2CCNCC2)NC(=O)CNC(=O)[C@H](C(C)(C)C)NC1=O` [compound 498, Ac-hLeu-Y-C-Tbg-G-PipAla-ThpA-D-V-Y-C-5FW-[(2S, 3S)beta-Me-Phe]-hydroxyVal-dLys(Glu-DOTA)-COOH] (Ac-[hLeu]YC[Tle]G[Ala(piperidin-4-yl)][Ala(4-THP)]DVYC[Trp(5-F)][X1][Val(3-OH)][dK]([Glu-DOTA])-OH; disulfide 3-11) gave a Kd under setting [2] below 1 nM.
Under setting [1], `CC(=O)N[C@@H](CCC(C)C)C(=O)N[C@@H](Cc1ccc(O)cc1)C(=O)N[C@H]1CSSC[C@@H](C(=O)N[C@@H](Cc2c[nH]c3ccccc23)C(=O)N[C@@H](Cc2ccccc2)C(=O)N[C@H](C(=O)N[C@H](CCCCNC(=O)CN2CCN(CC(=O)O)CCN(CC(=O)O)CCN(CC(=O)O)CC2)C(N)=O)[C@@H](C)O)NC(=O)[C@H](Cc2ccc(O)cc2)NC(=O)[C@H](C(C)C)NC(=O)[C@H](CC(=O)O)NC(=O)[C@H](Cc2ccc(C(=O)O)cc2)NC(=O)[C@H](CCCCN)NC(=O)CN(C)C(=O)[C@H](C(C)(C)C)NC1=O` [compound 140, Ac-hLeu-Y-C-Tbg-Sar-K-4COOHPhe-D-V-Y-C-W-F-Thr-dLys(DOTA)-CONH2] (Ac-[hLeu]YC[Tle][Sar]K[Phe(4-COOH)]DVYCWFT[dK](DOTA)-NH2; disulfide 3-11) had a Kd of 1 to 10 nM.
Compound `CC(=O)N[C@@H](CCC1CCCCC1)C(=O)N[C@@H](Cc1ccc(O)cc1)C(=O)N[C@H]1CSSC[C@@H](C(=O)N[C@@H](Cc2c[nH]c3ccc(F)cc23)C(=O)N[C@@H](Cc2ccccc2)C(=O)N[C@H](C(=O)N[C@H](CCCCNC(=O)CN2CCN(CC(=O)O)CCN(CC(=O)O)CCN(CC(=O)O)CC2)C(=O)O)C(C)(C)O)NC(=O)[C@H](Cc2ccc(O)cc2)NC(=O)[C@H](C(C)C)NC(=O)[C@H](CC(=O)O)NC(=O)[C@H](CC2CCOCC2)NC(=O)[C@H](CC2CCNCC2)NC(=O)CNC(=O)[C@H](C(C)(C)C)NC1=O` [compound 442, Ac-hCha-Y-C-Tbg-G-PipAla-ThpA-D-V-Y-C-5FW-F-hydroxyVal-dLys(DOTA)-COOH] (Ac-[hCha]YC[Tle]G[Ala(piperidin-4-yl)][Ala(4-THP)]DVYC[Trp(5-F)]F[Val(3-OH)][dK](DOTA)-OH; disulfide 3-11) gave a dissociation constant Kd under setting [2] below 1 nM.
On to `CC(=O)N[C@@H](CCC(C)C)C(=O)N[C@@H](Cc1ccc(O)cc1)C(=O)N[C@H]1CSSC[C@@H](C(=O)N[C@@H](Cc2c[nH]c3ccc(F)cc23)C(=O)N[C@@H](Cc2ccccc2)C(=O)N[C@H](C(=O)N[C@H](C)C(=O)O)C(C)(C)O)NC(=O)[C@H](Cc2ccc(O)cc2)NC(=O)[C@H](C(C)C)NC(=O)[C@H](CC(=O)O)NC(=O)[C@H](CC2CCN(C(=O)CCOCCOCCOCCOCCNC(=O)CN3CCN(CC(=O)O)CCN(CC(=O)O)CCN(CC(=O)O)CC3)CC2)NC(=O)[C@H](CCCNC(N)=O)NC(=O)CNC(=O)[C@H](C(C)(C)C)NC1=O` [compound 489, Ac-hLeu-Y-C-Tbg-G-Cit-Pip(PEG4-DOTA)Ala-D-V-Y-C-5FW-F-hydroxyVal-dAla-COOH] (Ac-[hLeu]YC[Tle]G[Cit][Ala(piperidin-4-yl)]([PEG4-DOTA])DVYC[Trp(5-F)]F[Val(3-OH)][dA]-OH; disulfide 3-11), for which the Kd (read-out: SPR KD—37° C., 37° C. flow cell temperature) is below 1 nM.
